Where “and” joins values, the source holds several entries; their conditions need not be identical. Equal values may be shown once. Read-outs that look alike come from different tables or passages of the source.
What was measured:
[1] = system: Aedes aegypti
Procedure: (§1) For Ae. aegypti, synergism assays were performed similar to the topical applications described previously, with the following modifications: 2 doses (2 µg/mosquito and 10 µg/mosquito) of each monoterpenoid were applied as synergists, similar to previous studies exploring the synergistic potential of natural products in combination with an intermediate dose-level of insecticide alone.
(§2) Mosquitoes were transferred to deli cups and kept at a controlled temperature and humidity (the same conditions as described for the topical application of insecticides and monoterpenoids alone). Again, a minimum of 3 separate rearing cohorts were used among replicates of each dose combination.
(§3) Dose responses were modeled via probit analysis, and their resulting estimates were obtained. […] A control correction option (OPTC command) was used to account for responses to the vehicle control treatments. Co-toxicity values were calculated by the method of [29]. A co-toxicity factor of >+20 signifies potentiation, <−20 antagonism, and −20 to +20 additive.

[2] = target: acetylcholinesterase (Musca domestica, UniProt Q7YWJ9); assay: In vitro inhibition of acetylcholinesterase (Ellman), head homogenate; format: biochemical; settings: at 1 mM, M. domestica preparation; read-out: inhibition of AChE
Procedure: Acetylcholinesterase inhibition was conducted on homogenates of whole-body Ae. aegypti and M. domestica heads using Ellman’s method. For Ae. aegypti, 10 whole female adults were placed in 2 mL microcentrifuge screw cap tubes with 3–5.2 mm zircon/silica beads and homogenized in 500 μL of sodium phosphate buffer (100 mM, pH 7.8) using a Precellys Evolution bead beater (Bertin Corp., Rockville, MD, USA) set to two 15-s pulses of 5600 rpm. Afterward, 500 μL of Triton X-100 buffer (100 mM sodium phosphate, pH 7.8, 0.6% Triton X-100) was added to each tube (final Triton X-100 concentration: 0.3%), inverted several times to mix up the sample, and then centrifuged at 10,000× g for 4 min at 4 °C. The supernatant was used as the enzyme source. The same process was carried out with M. domestica, except three heads were processed in a 1000:1000 μL sodium phosphate buffer and Triton X-100 buffer in the same manner as just described.
Concentration responses were conducted in the wells of a 96-well, clear, flat-bottomed plate. Inhibitor solutions of methomyl or monoterpenoids were first dissolved in DMSO (dimethyl sulfoxide) and then diluted in sodium phosphate buffer (100 mM, pH 7.8, DMSO concentration of 1%). A volume of 10 μL of the inhibitor solution was added to each well, along with 90 μL of sodium phosphate buffer, and finally 10 μL of homogenate. This was incubated on a plate shaker at 400 rpm for 10 min at room temperature. The final concentrations for methomyl were 100 μM, 10 μM, 1 μM, 100 nM, 10 nM, 1 nM, and 0 nM. For the monoterpenoids, the same range was used except the top concentration was 1 mM and the bottom non-zero concentration was 10 nM. The final concentration of DMSO in all wells was 0.09%.
After the 10-min incubation, 100 μL of Ellman’s reagent prepared in sodium phosphate buffer and each corresponding inhibitor concentration were added to the wells using a multichannel pipette.
as §3

[3] = system: Musca domestica; assay: Co-toxicity assay with permethrin (topical); format: in vivo; settings: for 1-h% Mean Knockdown ± SEM, Synergist Alone / 24-h% Mean Mortality ± SEM, Synergist Alone: 10.2 μg PBO, 70 μg carvone, 190 μg menthone, 80 μg fenchone per fly; for times as potent a synergist of permethrin as PBO: 24-h mortality; for 1-h% Mean Knockdown ± SEM, Mixture: near-sublethal synergist dose (10.2 μg PBO, 70 μg carvone, 190 μg menthone, 80 μg fenchone) + permethrin 18 ng; for 1-h knockdown Co-Toxicity Factor / 24-h mortality Co-Toxicity Factor: near-sublethal synergist dose + permethrin, >+20 potentiation, <−20 antagonism, −20 to +20 additive
Procedure: […]. Each dose was formulated in a total volume of 1.5 mL of acetone. A dose of permethrin that produced approximately 50% mortality (18 ng) was used as the treatment. Female flies were sorted into groups of 20 per synergism assay and dosed as previously mentioned (i.e., the same way as in the topical toxicity assays). Flies were assessed for mortality at 24 h.

[4] = system: Aedes aegypti; settings: for LD10 (95% CI) / LD50 (95% CI) / LD90 (95% CI): 24 h, topical, adult females, susceptible strain
[5] = system: Musca domestica; settings: 24 h, topical, adult females, susceptible strain
[6] = system: rabbit; settings: cited from earlier work
[7] = system: rat; settings: in vivo; cited from earlier work
[8] = system: Aedes aegypti; assay: Co-toxicity assay with permethrin (topical); settings: for 1-h knockdown Co-Toxicity Factor / 24-h mortality Co-Toxicity Factor: >+20 potentiation, <−20 antagonism, −20 to +20 additive
Procedure: as §1, §2, §3

[9] = cited from earlier work
[10] = animal and route not given; cited from earlier work
[11] = 2 μg synergist + methomyl 6 ng/mosquito
[12] = 2 μg synergist + methomyl, >+20 potentiation, <−20 antagonism, −20 to +20 additive
[13] = 10 μg synergist + methomyl 6 ng/mosquito
[14] = 10 μg synergist + methomyl, >+20 potentiation, <−20 antagonism, −20 to +20 additive
[15] = 2 μg synergist + permethrin 0.6 ng/mosquito
[16] = 10 μg synergist + permethrin 0.6 ng/mosquito
[17] = 10 μg synergist per Ae. aegypti

acetylcholinesterase, sequence (Q7YWJ9 81-660): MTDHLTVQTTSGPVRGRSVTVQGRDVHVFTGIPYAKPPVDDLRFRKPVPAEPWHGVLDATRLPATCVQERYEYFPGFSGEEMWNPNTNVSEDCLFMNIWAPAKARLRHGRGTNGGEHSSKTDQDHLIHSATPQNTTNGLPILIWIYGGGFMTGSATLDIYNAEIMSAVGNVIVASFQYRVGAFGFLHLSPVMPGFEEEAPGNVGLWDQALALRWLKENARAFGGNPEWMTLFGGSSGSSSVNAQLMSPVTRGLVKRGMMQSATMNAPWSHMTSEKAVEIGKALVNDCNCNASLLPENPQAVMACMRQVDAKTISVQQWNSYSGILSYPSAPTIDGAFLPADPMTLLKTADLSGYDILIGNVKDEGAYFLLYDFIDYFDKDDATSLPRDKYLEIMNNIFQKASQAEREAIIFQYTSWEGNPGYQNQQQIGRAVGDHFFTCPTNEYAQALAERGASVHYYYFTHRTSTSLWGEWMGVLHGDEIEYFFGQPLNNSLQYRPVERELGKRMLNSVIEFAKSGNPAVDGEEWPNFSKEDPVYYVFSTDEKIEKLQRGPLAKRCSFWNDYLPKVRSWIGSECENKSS

| Compound | 1-h% Mean Knockdown ± SEM, Synergist Alone ([1]; 2 μg applied) [%] | 24-h% Mean Mortality ± SEM, Synergist Alone ([1]; 2 μg applied) [%] | 48-h% Mean Mortality ± SEM, Synergist Alone ([1]; 2 μg applied) [%] | 1-h% Mean Knockdown ± SEM, Synergist Alone [3] [%] | 24-h% Mean Mortality ± SEM, Synergist Alone [3] [%] | 1-h% Mean Knockdown ± SEM, Mixture [3] [%] | 1-h knockdown Co-Toxicity Factor [3] | 24-h mortality Co-Toxicity Factor [3] | LD10 (95% CI) [4] | LD90 (95% CI) [4] | LD10 (95% CI) [5] | LD90 (95% CI) [5] | 1-h% Mean Knockdown ± SEM, Mixture [8, 15] [%] | 1-h knockdown Co-Toxicity Factor ([8]; 2 μg synergist + permethrin) | 24-h mortality Co-Toxicity Factor ([8]; 2 μg synergist + permethrin) | 1-h% Mean Knockdown ± SEM, Synergist Alone ([8]; 2 μg synergist per Ae. aegypti) [%] | 24-h% Mean Mortality ± SEM, Synergist Alone ([8]; 2 μg synergist per Ae. aegypti) [%] | 1-h% Mean Knockdown ± SEM, Mixture [8, 16] [%] | 1-h knockdown Co-Toxicity Factor ([8]; 10 μg synergist + permethrin) | 1-h% Mean Knockdown ± SEM, Synergist Alone [8, 17] [%] | further results |
| --- | --- | --- | --- | --- | --- | --- | --- | --- | --- | --- | --- | --- | --- | --- | --- | --- | --- | --- | --- | --- | --- |
| CC12CCC(C1)C(C)(C)C2=O [Fenchone, L-fenchone] | 0 ± 0 | 2.5 ± 2.5 | 7.5 ± 4.8 | 0 ± 0 | 0 ± 0 | 100 ± 0 | 24.0 | 63.4 | 7600 (5000–9500) b ng/mg body weight | 42,000 (28,800–94,900) d ng/mg body weight | 8800 (8100–9400) d ng/mg body weight | 19,900 (18,600–21,600) d ng/mg body weight | 100 ± 0 | 32.0 | 160 | 0 ± 0 | 2.5 ± 2.5 | 100 ± 0 | 16 | 10 ± 4.1 | 1-h% Mean Knockdown ± SEM, Mixture [1, 11]: 83.3 ± 3.3%; 1-h knockdown Co-Toxicity Factor [1, 12]: −5; 24-h mortality Co-Toxicity Factor [1, 12]: −11; 48-h mortality Co-Toxicity Factor [1, 12]: −17; 24-h mortality Co-Toxicity Factor ([1]; 2 μg synergist + methomyl, >+20 potentiation, <−20 antagonism, −20 to +20 additive, listed as fenchone): negative; 1-h% Mean Knockdown ± SEM, Synergist Alone ([1]; 10 μg applied): 10 ± 4.1%; 24-h% Mean Mortality ± SEM, Synergist Alone ([1]; 10 μg applied): 2.5 ± 2.5%; 48-h% Mean Mortality ± SEM, Synergist Alone ([1]; 10 μg applied): 10 ± 4.1%; 1-h% Mean Knockdown ± SEM, Mixture [1, 13]: 93.3 ± 6.7%; 1-h knockdown Co-Toxicity Factor [1, 14]: −4; 24-h mortality Co-Toxicity Factor [1, 14]: 22; 48-h mortality Co-Toxicity Factor [1, 14]: 7; inhibition at 1000 µM [2]: 1.9 ± 0.3%; times as potent a synergist of permethrin as PBO [3]: 1.1; LD50 (95% CI) [4]: 11,300 (10,200–53,400) d ng/mg body weight; LD50 (95% CI) [5]: 13,200 (12,600–13,800) d ng/mg body weight; Dermal LD50 ([6]; in vivo): 5000 (rb) mg compound per kg body weight; Oral LD50 [7]: 6160 (rt) mg compound per kg body weight; 24-h mortality Co-Toxicity Factor ([8]; 10 μg synergist + permethrin): 121; 24-h% Mean Mortality ± SEM, Synergist Alone [8, 17]: 2.5 ± 2.5% |
| CC(C)[C@@H]1CC[C@@H](C)CC1=O [Menthone, L-menthone] | 7.5 ± 4.8 | 5 ± 2.9 | 7.5 ± 2.5 | 4 ± 2.4 | 0 ± 0 | 95 ± 2.9 | 12.6 | 48.4 | 5000 (1000–6300) b ng/mg body weight | 10,000 (8500–13,100) c ng/mg body weight | 5300 (5100–5400) c ng/mg body weight | 8800 (8400–9400) c ng/mg body weight | 100 ± 0 | 19.8 | 132 | 7.5 ± 4.8 | 5 ± 2.9 | 100 ± 0 | 13 | 12.5 ± 4.8 | 1-h% Mean Knockdown ± SEM, Mixture [1, 11]: 100 ± 0%; 1-h knockdown Co-Toxicity Factor [1, 12]: 0; 48-h mortality Co-Toxicity Factor [1, 12]: 7; 1-h% Mean Knockdown ± SEM, Synergist Alone ([1]; 10 μg applied): 12.5 ± 4.8%; 24-h% Mean Mortality ± SEM, Synergist Alone ([1]; 10 μg applied): 15 ± 5%; 48-h% Mean Mortality ± SEM, Synergist Alone ([1]; 10 μg applied): 22.5 ± 7.5%; 1-h% Mean Knockdown ± SEM, Mixture [1, 13]: 100 ± 0%; 1-h knockdown Co-Toxicity Factor [1, 14]: 0; 24-h mortality Co-Toxicity Factor [1, 14]: 29; 48-h mortality Co-Toxicity Factor [1, 14]: 7; times as effective a synergist of methomyl as PBO ([1]; 24-h mortality, 2 μg synergist): 2.0; inhibition at 1000 µM [2]: 3.7 ± 1.2%; times as potent a synergist of permethrin as PBO [3]: 0.9; times as toxic as fenchone ([4]; at LD10): about 1.5; times as toxic as fenchone ([4]; at LD50): about 1.5; times as toxic as fenchone ([4]; at LD90): about 4.2; 24-h mortality Co-Toxicity Factor ([8]; 10 μg synergist + permethrin): 83; 24-h% Mean Mortality ± SEM, Synergist Alone [8, 17]: 15 ± 5%; times as strong a synergist of permethrin as PBO ([8]; 24-h mortality, 2 μg synergist): 5.3 |
| CCCCOCCOCCOCc1cc2c(cc1CCC)OCO2 [PBO, piperonyl butoxide, reference compound] | 7.5 ± 2.5 | 12.5 ± 6.3 | 15 ± 3.4 | 2 ± 2 | 6 ± 2.9 | 96 ± 4 | 16.2 | 55.9 |  |  |  |  | 52.5 ± 7.5 | −44.7 | 25 | 7.5 ± 2.5 | 12.5 ± 6.3 | 60 ± 14.7 | −39 | 22.5 ± 4.8 | 1-h knockdown Co-Toxicity Factor ([1]; in vivo): −5.3; 1-h% Mean Knockdown ± SEM, Mixture ([1]; in vivo): 90 ± 10%; 24-h mortality Co-Toxicity Factor ([1]; in vivo): 14.3; 48-h mortality Co-Toxicity Factor ([1]; in vivo): 20.9; 24-h% Mean Mortality ± SEM, Synergist Alone [8, 17]: 72.5 ± 8.5% |
| CC1(C)C(C=C(Cl)Cl)C1C(=O)OCc1cccc(Oc2ccccc2)c1 (centres unmarked) [Permethrin, reference compound] |  |  |  |  |  |  |  |  | 0.23 (0.12–0.33) a ng/mg body weight | 1.41 (1.08–2.24) a ng/mg body weight | 0.46 (0.37–0.56) a ng/mg body weight | 1.5 (1.4–1.7) a ng/mg body weight |  |  |  |  |  |  |  |  | 1-h% Mean Knockdown ± SEM, Permethrin Alone ([3]; permethrin 18 ng): 80 ± 7.3%; 24-h% Mean Mortality ± SEM, Permethrin Alone ([3]; permethrin 18 ng): 58 ± 10.1%; LD50 (95% CI) [4]: 0.58 (0.45–0.71) a ng/mg body weight; LD50 (95% CI) [5]: 0.84 (0.79–0.93) a ng/mg body weight; Dermal LD50 ([6]; ref 32,33 (L-fenchone), 35,36 (Permethrin), 37 (Methomyl)): 2000 (rb) mg compound per kg body weight; aerobic soil half-life [9]: 11.6 to 113 days; Oral LD50 [7]: 430–4000 (rt) mg compound per kg body weight; 1-h% Mean Knockdown ± SEM, Permethrin Alone ([8]; permethrin 0.6 ng/mosquito): 76 ± 9.2% and 87.5 ± 6.3%; 24-h% Mean Mortality ± SEM, Permethrin Alone ([8]; permethrin 0.6 ng/mosquito): 27.5 ± 4.8%; 24-h% Mean Mortality ± SEM, Permethrin Alone ([8]; permethrin 0.6 ng/mosquito, listed as permethrin): 36 ± 6% |
| Cc1ccc(C(C)C)cc1O [carvacrol] |  |  |  |  |  |  |  |  |  |  |  |  |  |  |  |  |  |  |  |  | LD50 [10]: 2000 to 3000 mg/kg |
| CC(C)=C1CC[C@@H](C)CC1=O [pulegone] |  |  |  |  |  |  |  |  |  |  |  |  |  |  |  |  |  |  |  |  | LD50 [10]: 2000 to 3000 mg/kg |

— publication PMC10096376, “Insecticidal and Synergistic Potential of Three Monoterpenoids against the Yellow Fever Mosquito, Aedes aegypti (Diptera: Culicidae), and the House Fly, Musca domestica (Diptera: Muscidae)” (Molecules, 2023)
